Common to all, as to test: DTP human tumour cell line panel, 48 h
Assay [1] concerns MCF7.
In assay [2] the test system is RPMI-8226.
For assay [3], the system named is Hs-578T.
Assay [4] relates to SK-MEL-5.
Assay [5] has as its system SF-539.
For assay [6], the system named is SR.
For assay [7], the system named is COLO 205.
The subject of assay [8] is NCI-H23.
Assay [9] has as its system SF-268.
Assay [10] concerns OVCAR-5.
Assay [11] deals with EKVX.
Assay [12] relates to PC-3.
Assay [13] relates to IGROV-1.
The test system of assay [14] is A498.
Assay [15] deals with SNB-75.
In assay [16] the test system is HCT-15.
The subject of assay [17] is UO-31.
Assay [18] has as its system SNB-19.
Assay [19] concerns OVCAR-3.
The test system of assay [20] is T47D.

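Growth conditions: 96-well plates. Treatment: test compound, 48 hours, 5 concentrations. Analysis: linear interpolation between bracketing concentrations; unreached endpoints set to highest concentration. GI50 marks 50% less growth.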 Active and inactive are the calls of the source. Rule as the data show it: active = GI50 up to about 1.1 µM and inactive = higher.

As a reminder, the GI50 is the concentration that inhibits growth by half. Regarding `CC(=O)n1nc(-c2ccccc2)n(/N=C/c2ccc([N+](=O)[O-])o2)c1=O`, the GI50 in assay [1] was 2.58 µM (inactive); in [2], 10 µM (inactive); in assay [3], 8.59 µM (inactive); in assay [4] it was 7.13 µM (inactive); in [5], 8.79 µM (inactive); in assay [6], 3.08 µM (inactive). The GI50 was 7.36 µM (inactive) in [7]; 7.64 µM (inactive) in assay [8]; 3.08 µM (inactive) in [9]; 1.47 µM (inactive) in assay [10]; 0.933 µM (active) in [11]; 13.7 µM (inactive) in assay [12]. Moreover, the GI50 was 15.9 µM (inactive) in [13]; 2.47 µM (inactive) in assay [14]; 10.2 µM (inactive) in [15]; 6.84 µM in assay [16]; 1.77 µM (inactive) in [17]; 16.3 µM (inactive) in assay [18]. The GI50 in assay [19] was 7.91 µM (inactive); in [20], 19.9 µM (inactive).

Values taken from ChEMBL document CHEMBL1201862, “PubChem BioAssay data set” (2004).
